This is an account of results in patent US10287313B2, “RNA monomers containing 0-acetal levulinyl ester groups and their use in RNA microarrays” (THE ROYAL INSTITUTION FOR THE ADVANCEMENT OF …, priority 2008, dated 2019).

In the oligonucleotide strings, read from the 5' end, every base follows the letter of its sugar. An asterisk marks phosphorothioate; unmarked linkages are phosphodiester. Other units and linkages are bracketed, terminal groups are in braces. A string of capitals states the bases alone. d = 2'-deoxy (DNA); r = 2'-OH (RNA)

Data set [1] can be described thus: Tm of 21-nt RNAs synthesized from various chemistries. It is filed as physicochemical. The note with it: base sequence r(GCUUGAAGUCUUUAAUUAA)-d(TT).
A further data set relates to luciferase mRNA. Briefly: RNAi assay that targets luciferase mRNA (luciferase gene knockdown by siRNA duplexes). It is filed as cell-based. The note with it: antisense strand annealed to common sense strand synthesized via 2′-TBDMS chemistry; light units relative to Renilla control; compared with TBDMS, TOM and ACE derived duplexes. From the text: The fully deprotected antisense strands were synthesized by TBDMS, TOM, ACE and ALE chemistries, whereas the complementary sense strand of the siRNA duplex was synthesized by TBDMS chemistry.
As a final check, we evaluated the activity of all RNAs synthesized in an RNAi assay that targets luciferase mRNA (Dowler, T. et al. Nucleic Acids Res 2006, 34, 1669-75). Each of the antisense strands prepared by the various chemistries were allowed to anneal to a common sense strand synthesized via 2′-TBDMS chemistry.

On to “r(GCUUGAAGUCUUUAAUUAA)-d(TT) [TBDMS] (RNA, 3' dTdT, backbone not given here) [21-nt antisense siRNA strand synthesized from 2′-O-TBDMS chemistry]”, for which the Tm in data set [1] stood at 59.8 °C. Regarding “r(GCUUGAAGUCUUUAAUUAA)-d(TT) [ALE] (antisense rGrCrUrUrGrArArGrUrCrUrUrUrArArUrUrArAdTdT) [21-nt antisense siRNA strand synthesized from 2′-O-ALE chemistry]”, the “gene silencing activity (luciferase gene knockdown)” value in the data set with luciferase mRNA is on record as “same gene silencing activity”. For the same substance, the Tm in data set [1] was found to be 59.4 °C.

For the substance “r(GCUUGAAGUCUUUAAUUAA)-d(TT) [ACE] (antisense rGrCrUrUrGrArArGrUrCrUrUrUrArArUrUrArAdTdT) [21-nt antisense siRNA strand from 2′-O-ACE chemistry, crude RNA purchased from Dharmacon]”, the Tm in data set [1] was 59.5 °C. As for “r(GCUUGAAGUCUUUAAUUAA)-d(TT) [TOM] (antisense rGrCrUrUrGrArArGrUrCrUrUrUrArArUrUrArAdTdT) [21-nt antisense siRNA strand synthesized from 2′-O-TOM chemistry]”, in data set [1], the Tm was found to be 60.1 °C.
